Like-named read-outs stand apart in the source and are kept apart here.
How the values were obtained:
[1] = system: Hordeum vulgare; test: Shoot growth, postemergence treatment in the greenhouse (table 26); assay type: in vivo
Method: (§1) Plastic flowerpots having a volume of 300 cm^3 were filled with a sandy loam and the test plants placed therein (either as seed, as vegetatively reproduced species, or as potted plants, e.g., vines). For preemergence treatment, the active ingredients were suspended or emulsified in water as vehicle and sprayed onto the surface of the soil immediately after sowing by means of finely distributing nozzles. The potted vines were treated by spraying them with the correspondingly diluted liquor. For postemergence treatment, the agents were, as stated above, sprayed in water onto the leaves of the test plants, some liquor also falling onto the soil. In some special cases, solid active ingredients were first dissolved in dimethylformamide and then applied in a total liquor amount of 400 liters of water per hectare. For the postemergence treatment, the plants were first grown to a height of from 3 to 10 cm before being treated. With grasses, the first growth was cut, and the new growth treated 2 to 3 days after cutting. The temperature requirements of the plants were taken into account by placing them in cooler or warmer sections of the greenhouse. The experiments were run for from 4 to 6 weeks, during which time the plants were tended and their reaction to the various treatments was assessed.
(§2) The application rates are given in kg/ha of active ingredient, regardless of the method of application and the amount of water used.
(§3) A 0 to 100 scale was used for the evaluation, 0 denoting normal emergence or no damage (or no inhibition), and 100 denoting non-emergence or complete destruction of the plants. A distinction should be made in the influence on growth between desired changes without any appreciable disadvantageous phytotoxic effects (e.g., purely growth-regulating effects) and those of a phytotoxic herbicical character.

[2] = system: Poa pratensis; test: as above; assay type: in vivo
Method: as §1, §2, §3

[3] = system: Cynodon dactylon; test: as above; assay type: in vivo; settings: from seed
Method: as §1, §2, §3

[4] = system: Galium apar.; test: Herbicidal action, pre- and postemergence application in the greenhouse; assay type: in vivo, Galium aparine; settings: post-emergence, read-out: % damage
Method: as §1, §2, §3

[5] = system: Sinapis alba; test: as above; assay type: in vivo; settings: post-emergence, 3.0 kg/ha PRE, read-out: % damage
Method: as §1, §2, §3

[6] = system: Lolium mult.; test: as above; assay type: in vivo; settings: Lolium, post-emergence, read-out: % damage
Method: as §1, §2, §3

[7] = system: Mentha piper.; test: as above; assay type: in vivo; settings: post-emergence; 3.0 kg/ha POST; read-out: % damage
Method: as §1, §2, §3

[8] = system: Cynodon dact. (seed); test: as above; assay type: in vivo, Cynodon dactylon; settings: appln. rate 2 kg/ha, POST line
Method: as §1, §2, §3

[9] = system: Ipom. spp.; test: as above; assay type: in vivo, Ipomoea spp.; settings: Ipomoea, post-emergence; 3.0 kg/ha POST; read-out: % damage
Method: as §1, §2, §3

[10] = system: Hordeum vulg.; test: Shoot inhibition, pre- and postemergence treatment (table 28); assay type: in vivo, Hordeum vulgare; settings: post-emergence
Method: as §1, §2, §3

[11] = system: Euphorbia geniculata; test: Shoot growth, postemergence treatment in the greenhouse (table 26); assay type: in vivo
Method: as §1, §2, §3

[12] = system: Poa pratensis; test: Growth inhibition in lawns, preemergence treatment in the greenhouse; assay type: in vivo; settings: Poa pratensis, pre-emergence, read-out: % growth inhibition after emergence
Method: as §1, §2, §3

[13] = system: Medicago sativa; test: Inhibition of shoot growth by growth regulators, pre- and postemergence (table 27); assay type: in vivo; settings: post-emergence, read-out: shoot growth inhibition (%)
Method: as §1, §2, §3

[14] = system: Euphorbia geniculata; test: as above; assay type: in vivo; settings: Euphorbia heterophylla, post-emergence, read-out: shoot growth inhibition (%)
Method: as §1, §2, §3

[15] = system: Cynodon dactyl.; test: Shoot inhibition, pre- and postemergence treatment (table 28); assay type: in vivo, Cynodon dactylon; settings: post-emergence, read-out: % shoot inhibition
Method: as §1, §2, §3

[16] = system: Glycine max; test: as above; assay type: in vivo; settings: post-emergence, read-out: % shoot inhibition
Method: as §1, §2, §3

[17] = system: Poa prat.; test: as above; assay type: in vivo; settings: Poa pratensis, post-emergence, read-out: % shoot inhibition
Method: as §1, §2, §3

[18] = system: Tritic. aestiv.; test: as above; assay type: in vivo; settings: post-emergence
Method: as §1, §2, §3

[19] = system: Arachys hypog.; test: as above; assay type: in vivo, Arachys hypogaea; settings: post-emergence, read-out: % shoot inhibition
Method: as §1, §2, §3

[20] = system: Euphorbia genic.; test: as above; assay type: in vivo, Euphorbia geniculata; settings: post-emergence, read-out: % shoot inhibition
Method: as §1, §2, §3

[21] = system: Arachys hypogaea; test: Shoot growth, postemergence treatment in the greenhouse (table 25); assay type: in vivo
Method: as §1, §2, §3

[22] = system: Poa pratensis; test: as above; assay type: in vivo
Method: as §1, §2, §3

[23] = system: Oryza sativa; test: as above; assay type: in vivo
Method: as §1, §2, §3

[24] = read-out: % shoot inhibition, 1.0 kg/ha POST
[25] = read-out: % shoot inhibition, 1.0 kg/ha PRE
[26] = read-out: % shoot inhibition, 2.0 kg/ha POST
[27] = read-out: % shoot inhibition, 2.0 kg/ha PRE

OC1C2CC(C3N=NC23)C1Nc1ccc(Cl)cc1 (stereo not drawn)
Shoot length ([1]; 0.5 kg/ha): 16 cm | Shoot length ([1]; 1.0 kg/ha): 15 cm | Shoot length ([1]; 2.0 kg/ha): 14 cm | Shoot length ([2]; 1.0 kg/ha): 13 cm | Shoot length ([2]; 2.0 kg/ha): 13 cm | Shoot length ([3]; 1.0 kg/ha): 6 cm | Shoot length ([3]; 2.0 kg/ha): 6 cm

Cc1ccc(NC2C(Br)C3CC2C2N=NC32)cc1 (stereo not drawn)
pest or weed control at 3000 g/ha ([4]; 3.0 kg/ha POST): 80% | pest or weed control at 3000 g/ha [5]: 100% | pest or weed control at 3000 g/ha ([6]; 3.0 kg/ha POST): 100% | pest or weed control at 3000 g/ha ([6]; 3.0 kg/ha PRE): 95% | pest or weed control at 3000 g/ha [7]: 100% | % damage [8]: 100% | pest or weed control at 3000 g/ha [9]: 100%

CC(=O)OC1C2CC(C3N=NC23)C1Nc1ccc(Br)cc1 (stereo not drawn)
pest or weed control at 3000 g/ha [4]: 65% | pest or weed control at 3000 g/ha [5]: 100% | pest or weed control at 3000 g/ha ([6]; 3.0 kg/ha POST): 100% | pest or weed control at 3000 g/ha ([6]; 3.0 kg/ha PRE): 80% | pest or weed control at 3000 g/ha [7]: 95% | pest or weed control at 3000 g/ha [9]: 85%

FC(F)(F)c1cccc(NC2C(Br)C3CC2C2N=NC32)c1 (stereo not drawn)
pest or weed control at 3000 g/ha ([4]; 3.0 kg/ha POST): 90% | pest or weed control at 3000 g/ha [5]: 95% | pest or weed control at 3000 g/ha ([6]; 3.0 kg/ha POST): 100% | pest or weed control at 3000 g/ha ([6]; 3.0 kg/ha PRE): 100% | pest or weed control at 3000 g/ha [7]: 95% | pest or weed control at 3000 g/ha [9]: 100%

C[N+](C)(C)CCCl [[ClCH2CH2N(C⊕H3)3]⊖ Cl, reference compound]
inhibition at 1000 g/ha [10, 24]: 10% | inhibition at 1000 g/ha [10, 25]: 20% | inhibition at 2000 g/ha [10, 26]: 10% | inhibition at 2000 g/ha [10, 27]: 20% | Shoot length ([1]; 0.5 kg/ha): 14 cm | Shoot length ([1]; 1.0 kg/ha): 14 cm | Shoot length ([1]; 2.0 kg/ha): 14 cm | Shoot length ([11]; 0.5 kg/ha): 12.5 cm | Shoot length ([11]; 1.0 kg/ha): 13 cm | Shoot length ([11]; 2.0 kg/ha): 13 cm | Shoot length ([2]; 1.0 kg/ha): 20 cm | Shoot length ([2]; 2.0 kg/ha): 19 cm | Shoot length ([3]; 1.0 kg/ha): 7 cm | Shoot length ([3]; 2.0 kg/ha): 7 cm | inhibition at 500 g/ha ([12]; 0.5 kg/ha): 0% | inhibition at 1000 g/ha ([12]; 1.0 kg/ha): 10% | inhibition at 2000 g/ha ([12]; 2.0 kg/ha): 10% | inhibition at 4000 g/ha ([12]; 4.0 kg/ha): 10% | inhibition at 500 g/ha [13]: 0% | inhibition at 1000 g/ha [13]: 0% | inhibition at 2000 g/ha [13]: 0% | inhibition at 4000 g/ha [13]: 0% | inhibition at 500 g/ha [14]: 0% | inhibition at 1000 g/ha [14]: 0% | inhibition at 2000 g/ha [14]: 0% | inhibition at 4000 g/ha [14]: 10% | inhibition at 1000 g/ha [15]: 0% | inhibition at 2000 g/ha [15]: 0% | inhibition at 1000 g/ha [16]: 0% | inhibition at 2000 g/ha [16]: 0% | inhibition at 1000 g/ha [17]: 0% | inhibition at 2000 g/ha [17]: 0% | inhibition at 1000 g/ha [18, 24]: 30% | inhibition at 1000 g/ha [18, 25]: 20% | inhibition at 2000 g/ha [18, 26]: 30% | inhibition at 2000 g/ha [18, 27]: 20% | inhibition at 1000 g/ha [19]: 0% | inhibition at 2000 g/ha [19]: 0% | inhibition at 1000 g/ha [20]: 0% | inhibition at 2000 g/ha [20]: 0%

C[N+](C)(C)CCCl [[ClCH2CH2N⊕(CH3)3]⊖, reference compound]
Shoot length ([21]; 1.0 kg/ha): 16 cm | Shoot length ([21]; 2.0 kg/ha): 16 cm | Shoot length ([21]; 4.0 kg/ha): 16 cm | Shoot length ([22]; 1.0 kg/ha): 4 cm | Shoot length ([22]; 2.0 kg/ha): 4 cm | Shoot length ([22]; 4.0 kg/ha): 3 cm | Shoot length ([23]; 1.0 kg/ha): 20 cm | Shoot length ([23]; 2.0 kg/ha): 20 cm | Shoot length ([23]; 4.0 kg/ha): 20 cm

Source: patent US4259235A, “Tricyclic nitrogenous compounds having string plant growth regulating properties” (BASF Aktiengesellschaft, priority 1977, dated 1981)
